Measured values from article PMC6704710, “Preclinical evaluation of 3D185, a novel potent inhibitor of FGFR1/2/3 and CSF-1R, in FGFR-dependent and macrophage-dominant cancer models” (Journal of Experimental & Clinical Cancer Research : CR, 2019).

How the values were obtained:
Test in all cases: Eurofins kinase panel
Type in all cases: biochemical
Settings in all cases: read-out: Inhibition rate (%)
PKCβII(h) = target: T1, PKCβII(h) (Homo sapiens, UniProt P05771)
T1 construct: purchased Eurofins (KinaseProfiler)

Flt3(D835Y)(h) = target: T2, Flt3(D835Y)(h) (Homo sapiens, UniProt P36888, D835Y)
T2 construct: purchased Eurofins (KinaseProfiler)
T2 sequence (P36888 27-993 D835Y): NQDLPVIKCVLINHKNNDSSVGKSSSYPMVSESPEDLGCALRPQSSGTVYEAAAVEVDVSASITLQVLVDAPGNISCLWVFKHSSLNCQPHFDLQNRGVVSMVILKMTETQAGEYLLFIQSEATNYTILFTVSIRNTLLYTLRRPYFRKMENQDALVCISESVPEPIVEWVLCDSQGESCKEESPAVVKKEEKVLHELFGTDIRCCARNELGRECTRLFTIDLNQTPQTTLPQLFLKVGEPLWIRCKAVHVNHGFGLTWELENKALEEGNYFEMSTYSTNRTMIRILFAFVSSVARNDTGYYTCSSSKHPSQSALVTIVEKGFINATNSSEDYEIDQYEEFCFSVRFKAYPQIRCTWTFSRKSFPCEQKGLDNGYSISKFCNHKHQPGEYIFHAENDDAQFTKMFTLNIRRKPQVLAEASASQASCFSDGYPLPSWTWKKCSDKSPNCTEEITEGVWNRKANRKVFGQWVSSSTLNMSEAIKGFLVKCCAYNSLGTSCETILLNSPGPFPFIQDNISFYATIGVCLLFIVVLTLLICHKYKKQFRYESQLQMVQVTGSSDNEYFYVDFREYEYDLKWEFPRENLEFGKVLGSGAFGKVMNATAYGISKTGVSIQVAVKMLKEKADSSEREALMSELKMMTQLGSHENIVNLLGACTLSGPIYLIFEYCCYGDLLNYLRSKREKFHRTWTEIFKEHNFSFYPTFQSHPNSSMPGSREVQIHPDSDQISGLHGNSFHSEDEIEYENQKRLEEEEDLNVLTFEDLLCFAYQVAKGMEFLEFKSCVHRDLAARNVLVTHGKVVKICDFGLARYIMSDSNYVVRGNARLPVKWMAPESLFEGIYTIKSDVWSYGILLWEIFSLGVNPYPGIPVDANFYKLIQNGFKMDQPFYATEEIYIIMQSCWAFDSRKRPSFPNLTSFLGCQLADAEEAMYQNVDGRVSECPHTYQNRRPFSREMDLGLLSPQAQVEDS

PI3KC2α(h) = target: T3, PI3KC2α(h) (Homo sapiens, UniProt O00443)
T3 construct: purchased Eurofins (KinaseProfiler)

DCAMKL2(h) = target: T4, DCAMKL2(h) (Homo sapiens, UniProt Q8N568)
T4 construct: purchased Eurofins (KinaseProfiler)
T4 sequence (Q8N568 1-766): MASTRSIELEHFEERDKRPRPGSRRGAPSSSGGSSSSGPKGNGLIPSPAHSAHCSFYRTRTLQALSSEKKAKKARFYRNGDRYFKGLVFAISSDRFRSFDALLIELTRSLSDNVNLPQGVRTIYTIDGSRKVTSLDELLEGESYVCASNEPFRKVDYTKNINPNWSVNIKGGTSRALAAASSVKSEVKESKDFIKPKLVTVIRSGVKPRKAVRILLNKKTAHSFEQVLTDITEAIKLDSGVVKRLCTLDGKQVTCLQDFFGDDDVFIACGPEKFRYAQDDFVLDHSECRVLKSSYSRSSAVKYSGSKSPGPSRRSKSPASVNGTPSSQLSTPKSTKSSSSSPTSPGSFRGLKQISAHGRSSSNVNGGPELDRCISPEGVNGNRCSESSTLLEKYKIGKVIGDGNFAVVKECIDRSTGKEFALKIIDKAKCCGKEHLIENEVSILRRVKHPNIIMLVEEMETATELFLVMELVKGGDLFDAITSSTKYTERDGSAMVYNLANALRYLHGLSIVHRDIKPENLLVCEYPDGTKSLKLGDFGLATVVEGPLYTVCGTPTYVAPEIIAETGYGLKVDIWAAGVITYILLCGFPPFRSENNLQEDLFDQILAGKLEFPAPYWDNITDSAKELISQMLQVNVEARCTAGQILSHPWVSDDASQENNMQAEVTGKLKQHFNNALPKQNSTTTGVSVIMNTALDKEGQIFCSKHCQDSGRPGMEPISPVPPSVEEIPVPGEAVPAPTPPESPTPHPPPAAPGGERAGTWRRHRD

DDR1(h) = target: T5, DDR1(h) (Homo sapiens, UniProt Q08345)
T5 construct: purchased Eurofins (KinaseProfiler)

NEK7(h) = target: T6, NEK7(h) (Homo sapiens, UniProt Q8TDX7)
T6 construct: purchased Eurofins (KinaseProfiler)

MKK6(h) = target: T7, MKK6(h) (Homo sapiens, UniProt P52564)
T7 construct: purchased Eurofins (KinaseProfiler)
T7 sequence (P52564 1-334): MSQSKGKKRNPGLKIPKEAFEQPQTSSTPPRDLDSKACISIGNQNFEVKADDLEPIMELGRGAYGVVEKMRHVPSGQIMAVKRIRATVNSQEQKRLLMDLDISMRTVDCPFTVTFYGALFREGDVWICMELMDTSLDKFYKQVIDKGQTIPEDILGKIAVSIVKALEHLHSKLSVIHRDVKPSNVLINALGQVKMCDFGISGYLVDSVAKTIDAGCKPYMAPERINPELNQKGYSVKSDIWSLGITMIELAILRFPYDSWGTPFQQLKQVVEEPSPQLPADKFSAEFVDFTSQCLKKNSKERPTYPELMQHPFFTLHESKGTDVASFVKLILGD

TAF1L(h) = target: T8, TAF1L(h) (Homo sapiens, UniProt Q8IZX4)
T8 construct: purchased Eurofins (KinaseProfiler)
T8 sequence (Q8IZX4 whole entry): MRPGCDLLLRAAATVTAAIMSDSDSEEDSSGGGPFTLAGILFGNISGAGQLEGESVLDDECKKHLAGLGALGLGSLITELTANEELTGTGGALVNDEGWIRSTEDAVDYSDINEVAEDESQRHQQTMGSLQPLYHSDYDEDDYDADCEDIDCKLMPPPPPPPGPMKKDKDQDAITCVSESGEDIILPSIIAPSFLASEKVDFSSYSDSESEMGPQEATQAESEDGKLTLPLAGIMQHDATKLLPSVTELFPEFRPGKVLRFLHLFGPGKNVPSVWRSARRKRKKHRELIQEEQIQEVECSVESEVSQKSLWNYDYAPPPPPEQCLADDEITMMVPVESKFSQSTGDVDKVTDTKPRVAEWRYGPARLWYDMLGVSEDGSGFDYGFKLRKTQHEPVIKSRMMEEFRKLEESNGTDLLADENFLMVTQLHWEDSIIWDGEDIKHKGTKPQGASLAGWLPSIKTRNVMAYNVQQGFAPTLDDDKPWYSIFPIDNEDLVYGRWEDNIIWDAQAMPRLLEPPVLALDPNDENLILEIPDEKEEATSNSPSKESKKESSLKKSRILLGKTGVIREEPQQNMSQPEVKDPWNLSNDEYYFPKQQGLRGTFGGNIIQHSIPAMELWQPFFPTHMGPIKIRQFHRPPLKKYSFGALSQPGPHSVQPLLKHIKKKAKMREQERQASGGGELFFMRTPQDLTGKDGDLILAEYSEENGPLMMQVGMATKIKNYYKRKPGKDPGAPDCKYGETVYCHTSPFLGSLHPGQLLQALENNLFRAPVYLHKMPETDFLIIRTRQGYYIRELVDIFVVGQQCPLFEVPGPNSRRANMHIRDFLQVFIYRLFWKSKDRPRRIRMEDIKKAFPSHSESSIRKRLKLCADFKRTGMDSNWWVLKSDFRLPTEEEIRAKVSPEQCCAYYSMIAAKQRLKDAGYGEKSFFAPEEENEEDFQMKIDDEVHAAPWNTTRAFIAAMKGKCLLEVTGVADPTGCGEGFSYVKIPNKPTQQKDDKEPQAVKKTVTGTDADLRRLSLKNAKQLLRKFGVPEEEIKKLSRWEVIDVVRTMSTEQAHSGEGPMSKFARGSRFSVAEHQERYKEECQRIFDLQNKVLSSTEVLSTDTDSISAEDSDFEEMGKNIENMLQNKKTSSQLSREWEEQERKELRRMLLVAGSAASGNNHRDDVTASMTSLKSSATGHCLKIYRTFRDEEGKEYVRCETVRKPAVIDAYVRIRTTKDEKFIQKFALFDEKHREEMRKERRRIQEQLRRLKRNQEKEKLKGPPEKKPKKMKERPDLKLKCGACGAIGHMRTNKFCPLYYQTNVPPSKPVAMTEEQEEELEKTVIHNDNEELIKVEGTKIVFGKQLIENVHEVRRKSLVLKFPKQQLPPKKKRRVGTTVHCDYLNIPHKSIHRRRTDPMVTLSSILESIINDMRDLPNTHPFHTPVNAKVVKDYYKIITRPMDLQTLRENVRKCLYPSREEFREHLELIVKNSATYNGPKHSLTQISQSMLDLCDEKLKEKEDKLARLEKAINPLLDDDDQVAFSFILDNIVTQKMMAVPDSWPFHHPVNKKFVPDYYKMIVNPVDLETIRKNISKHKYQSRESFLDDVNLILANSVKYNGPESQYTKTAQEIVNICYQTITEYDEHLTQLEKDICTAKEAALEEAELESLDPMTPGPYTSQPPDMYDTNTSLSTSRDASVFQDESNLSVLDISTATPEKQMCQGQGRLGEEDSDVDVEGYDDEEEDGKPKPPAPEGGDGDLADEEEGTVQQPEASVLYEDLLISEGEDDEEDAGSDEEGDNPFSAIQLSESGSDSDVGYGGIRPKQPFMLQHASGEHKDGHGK

T6 sequence (Q8TDX7 whole entry): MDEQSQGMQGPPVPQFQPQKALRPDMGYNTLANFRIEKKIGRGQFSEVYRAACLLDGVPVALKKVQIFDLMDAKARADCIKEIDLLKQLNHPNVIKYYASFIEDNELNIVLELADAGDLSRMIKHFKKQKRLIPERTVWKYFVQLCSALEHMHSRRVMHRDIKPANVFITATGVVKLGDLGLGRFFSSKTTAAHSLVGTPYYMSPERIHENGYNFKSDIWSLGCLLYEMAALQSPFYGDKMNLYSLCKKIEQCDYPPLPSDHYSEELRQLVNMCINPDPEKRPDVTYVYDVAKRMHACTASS
T1 sequence (P05771 1-673 isoform P05771-2): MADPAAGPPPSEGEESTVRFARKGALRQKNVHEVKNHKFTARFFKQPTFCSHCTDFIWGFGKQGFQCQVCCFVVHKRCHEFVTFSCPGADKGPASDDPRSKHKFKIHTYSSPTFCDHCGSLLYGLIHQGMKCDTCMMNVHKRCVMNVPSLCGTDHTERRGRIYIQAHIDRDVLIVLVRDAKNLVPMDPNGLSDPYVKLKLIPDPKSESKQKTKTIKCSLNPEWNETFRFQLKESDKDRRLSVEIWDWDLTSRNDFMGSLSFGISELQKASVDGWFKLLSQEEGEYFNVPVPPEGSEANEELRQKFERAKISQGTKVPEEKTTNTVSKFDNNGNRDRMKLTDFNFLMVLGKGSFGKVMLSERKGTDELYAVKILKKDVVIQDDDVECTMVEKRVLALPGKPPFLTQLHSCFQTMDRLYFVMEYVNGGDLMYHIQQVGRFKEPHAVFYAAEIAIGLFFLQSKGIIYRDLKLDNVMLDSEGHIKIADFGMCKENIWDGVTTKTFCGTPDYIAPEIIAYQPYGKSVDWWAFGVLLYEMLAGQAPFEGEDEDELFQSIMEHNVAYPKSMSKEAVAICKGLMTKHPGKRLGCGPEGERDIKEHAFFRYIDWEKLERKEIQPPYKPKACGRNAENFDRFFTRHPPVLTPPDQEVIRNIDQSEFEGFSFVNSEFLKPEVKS
T3 sequence (O00443 whole entry): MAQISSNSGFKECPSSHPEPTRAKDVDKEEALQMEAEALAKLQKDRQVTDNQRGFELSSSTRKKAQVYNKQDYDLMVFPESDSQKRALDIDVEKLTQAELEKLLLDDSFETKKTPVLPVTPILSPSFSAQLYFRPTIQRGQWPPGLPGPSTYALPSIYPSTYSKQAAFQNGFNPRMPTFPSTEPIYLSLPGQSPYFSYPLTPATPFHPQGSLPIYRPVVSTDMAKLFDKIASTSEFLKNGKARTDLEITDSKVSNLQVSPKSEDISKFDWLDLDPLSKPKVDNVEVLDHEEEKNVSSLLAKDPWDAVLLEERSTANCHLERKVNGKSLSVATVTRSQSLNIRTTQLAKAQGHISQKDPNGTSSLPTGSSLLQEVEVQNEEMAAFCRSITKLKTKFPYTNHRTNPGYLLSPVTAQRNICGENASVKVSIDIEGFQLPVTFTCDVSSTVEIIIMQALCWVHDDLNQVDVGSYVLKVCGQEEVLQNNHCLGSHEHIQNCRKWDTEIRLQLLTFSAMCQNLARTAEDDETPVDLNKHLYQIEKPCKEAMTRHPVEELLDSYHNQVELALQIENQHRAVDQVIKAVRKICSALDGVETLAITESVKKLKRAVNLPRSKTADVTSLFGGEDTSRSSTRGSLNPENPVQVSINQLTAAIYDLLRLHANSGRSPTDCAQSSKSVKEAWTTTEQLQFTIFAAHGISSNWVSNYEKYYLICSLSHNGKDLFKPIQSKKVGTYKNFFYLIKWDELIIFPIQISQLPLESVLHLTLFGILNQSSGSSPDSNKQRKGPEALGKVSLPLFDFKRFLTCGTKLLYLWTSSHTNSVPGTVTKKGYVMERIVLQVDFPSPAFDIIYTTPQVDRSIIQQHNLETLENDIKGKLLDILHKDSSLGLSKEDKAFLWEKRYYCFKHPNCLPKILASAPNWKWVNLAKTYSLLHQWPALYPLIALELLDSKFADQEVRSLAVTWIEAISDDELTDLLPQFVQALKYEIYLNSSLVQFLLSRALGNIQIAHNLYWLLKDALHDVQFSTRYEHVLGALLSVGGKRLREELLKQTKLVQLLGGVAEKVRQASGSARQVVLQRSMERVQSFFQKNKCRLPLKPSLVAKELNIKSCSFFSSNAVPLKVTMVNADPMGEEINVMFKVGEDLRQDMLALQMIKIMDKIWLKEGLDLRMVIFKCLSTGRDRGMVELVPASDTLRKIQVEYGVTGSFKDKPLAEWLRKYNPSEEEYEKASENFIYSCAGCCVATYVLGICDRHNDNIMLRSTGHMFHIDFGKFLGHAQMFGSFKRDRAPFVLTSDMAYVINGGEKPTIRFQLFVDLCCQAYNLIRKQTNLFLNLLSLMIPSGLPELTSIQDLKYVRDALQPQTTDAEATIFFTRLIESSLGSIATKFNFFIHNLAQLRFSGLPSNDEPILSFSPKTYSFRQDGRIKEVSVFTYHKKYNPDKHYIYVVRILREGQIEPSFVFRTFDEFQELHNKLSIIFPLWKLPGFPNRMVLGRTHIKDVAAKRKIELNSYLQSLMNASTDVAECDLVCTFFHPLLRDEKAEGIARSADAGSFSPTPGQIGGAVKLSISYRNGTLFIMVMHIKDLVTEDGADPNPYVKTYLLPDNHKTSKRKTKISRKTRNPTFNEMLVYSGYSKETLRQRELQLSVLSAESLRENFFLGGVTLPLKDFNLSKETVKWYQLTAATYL

`COc1cc(OC)c(Cl)c(-c2ccc3c(NC(=O)c4ccc(N5CCNC(C)(C)C5)cc4)n[nH]c3n2)c1Cl` [3D185] was tested. Which inhibition at 0.01 µM (PKCβII(h); 10 nM) did it give?
Its inhibition at 0.01 µM is -12%.

What about the inhibition at 0.1 µM (PKCβII(h); 100 nM) of the same molecule?
Its inhibition at 0.1 µM is -1%.

What about the inhibition at 1 µM (PKCβII(h); 1000 nM) of the same molecule?
The inhibition at 1 µM was -8%.

What about the inhibition at 0.01 µM (Flt3(D835Y)(h); 10 nM) of the same molecule?
The inhibition at 0.01 µM was -1%.

And the inhibition at 0.1 µM (Flt3(D835Y)(h); 100 nM)?
The inhibition at 0.1 µM was -6%.

What about the inhibition at 1 µM (Flt3(D835Y)(h); 1000 nM) of the same molecule?
The inhibition at 1 µM was 5%.

What about the inhibition at 0.01 µM (PI3KC2α(h); 10 nM) of the same molecule?
The inhibition at 0.01 µM was -5%.

What about the inhibition at 0.1 µM (PI3KC2α(h); 100 nM) of the same molecule?
The inhibition at 0.1 µM was 1%.

And the inhibition at 1 µM (PI3KC2α(h); 1000 nM)?
Its inhibition at 1 µM is 1%.

And the inhibition at 0.01 µM (DCAMKL2(h); 10 nM)?
Its inhibition at 0.01 µM is 8%.

And the inhibition at 0.1 µM (DCAMKL2(h); 100 nM)?
Its inhibition at 0.1 µM is 18%.

What about the inhibition at 1 µM (DCAMKL2(h); 1000 nM) of the same molecule?
Its inhibition at 1 µM is 28%.

And the inhibition at 0.01 µM (DDR1(h); 10 nM)?
Its inhibition at 0.01 µM is 6%.

And the inhibition at 0.1 µM (DDR1(h); 100 nM)?
The inhibition at 0.1 µM was 27%.

And the inhibition at 1 µM (DDR1(h); 1000 nM)?
The inhibition at 1 µM was 64%.

And the inhibition at 0.01 µM (NEK7(h); 10 nM)?
The inhibition at 0.01 µM was 2%.

What about the inhibition at 0.1 µM (NEK7(h); 100 nM) of the same molecule?
Its inhibition at 0.1 µM is 1%.

What about the inhibition at 1 µM (NEK7(h); 1000 nM) of the same molecule?
The inhibition at 1 µM was -1%.

And the inhibition at 0.01 µM (MKK6(h); 10 nM)?
Its inhibition at 0.01 µM is 11%.

What about the inhibition at 0.1 µM (MKK6(h); 100 nM) of the same molecule?
The inhibition at 0.1 µM was 0%.

What about the inhibition at 1 µM (MKK6(h); 1000 nM) of the same molecule?
The inhibition at 1 µM was 2%.

What about the inhibition at 0.01 µM (TAF1L(h); 10 nM) of the same molecule?
Its inhibition at 0.01 µM is -4%.

What about the inhibition at 0.1 µM (TAF1L(h); 100 nM) of the same molecule?
The inhibition at 0.1 µM was -9%.

And the inhibition at 1 µM (TAF1L(h); 1000 nM)?
The inhibition at 1 µM was -9%.
